Read-outs that look alike come from different tables or passages of the source.
T1: OATP1B3 (Homo sapiens, UniProt Q9NPD5)
T1 sequence (Q9NPD5 1-702): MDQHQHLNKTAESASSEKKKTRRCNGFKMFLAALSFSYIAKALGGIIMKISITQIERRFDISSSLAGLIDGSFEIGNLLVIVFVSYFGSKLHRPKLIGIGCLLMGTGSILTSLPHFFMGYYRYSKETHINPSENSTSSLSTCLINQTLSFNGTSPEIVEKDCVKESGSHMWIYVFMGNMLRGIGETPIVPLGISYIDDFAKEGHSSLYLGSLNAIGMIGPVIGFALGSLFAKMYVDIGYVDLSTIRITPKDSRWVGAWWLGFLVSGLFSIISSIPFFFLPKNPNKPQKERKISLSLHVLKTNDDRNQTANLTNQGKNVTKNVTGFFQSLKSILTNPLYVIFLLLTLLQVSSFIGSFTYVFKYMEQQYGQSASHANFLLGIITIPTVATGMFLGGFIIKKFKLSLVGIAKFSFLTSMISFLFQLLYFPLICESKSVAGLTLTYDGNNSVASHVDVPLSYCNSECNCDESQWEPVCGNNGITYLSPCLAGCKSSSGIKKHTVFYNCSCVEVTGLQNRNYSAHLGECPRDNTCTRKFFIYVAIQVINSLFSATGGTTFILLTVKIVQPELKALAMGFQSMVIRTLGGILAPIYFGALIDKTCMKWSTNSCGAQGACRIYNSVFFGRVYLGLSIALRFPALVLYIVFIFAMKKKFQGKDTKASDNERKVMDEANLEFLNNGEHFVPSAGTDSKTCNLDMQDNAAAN

B1: OAT3 (Homo sapiens) (protein)
chain: MTFSEILDRVGSMGHFQFLHVAILGLPILNMANHNLLQIFTAATPVHHCRPPHNASTGPWVLPMGPNGKPERCLRFVHPPNASLPNDTQRAMEPCLDGWVYNSTKDSIVTEWDLVCNSNKLKEMAQSIFMAGILIGGLVLGDLSDRFGRRPILTCSYLLLAASGSGAAFSPTFPIYMVFRFLCGFGISGITLSTVILNVEWVPTRMRAIMSTALGYCYTFGQFILPGLAYAIPQWRWLQLTVSIPFFVFFLSSWWTPESIRWLVLSGKSSKALKILRRVAVFNGKKEEGERLSLEELKLNLQKEISLAKAKYTASDLFRIPMLRRMTFCLSLAWFATGFAYYSLAMGVEEFGVNLYILQIIFGGVDVPAKFITILSLSYLGRHTTQAAALLLAGGAILALTFVPLDLQTVRTVLAVFGKGCLSSSFSCLFLYTSELYPTVIRQTGMGVSNLWTRVGSMVSPLVKITGEVQPFIPNIIYGITALLGGSAALFLPETLNQPLPETIEDLENWSLRAKKPKQEPEVEKASQRIPLQPHGPGLGSS
notes: host or cells: HEK293

Assays:
rat primary hepatocytes = assay: Inhibition of EZE-Ph uptake into rat primary hepatocytes by bile acids and rifampicin; conditions: 10 μM EZE-Ph, 10 min
Description: Rat primary hepatocytes were isolated from male SD rats as previously described [34]. Fresh rat hepatocytes (120,000 per well) were cultured in Williams’ E medium (containing 0.1 μM dexamethasone, 5% fetal bovine serum, 1% penicillin G/streptomycin, 1% GlutaMAX-I, and 1% insulin–transferrin–selenium) on collagen I-coated 48-well plates. Rat hepatocytes cultured for 4 h under a carbogen atmosphere were directly used for uptake assays.
The hepatocytes were rinsed three times with HBSS (37 °C) and equilibrated in HBSS for 10 min. […] After 10 min of incubation, cells were quickly washed three times with ice-cold HBSS and then lysed by the addition of 300 μL of purified water. The protein content was measured using the BCA protein assay kit. EZE and EZE-Ph were analyzed by LC-MS/MS.
The rates of substrate uptake were normalized using the protein contents of cell lysates.

UGTs = assay: Inhibition of EZE glucuronidation by bile acids in rat liver S9; assay type: in vitro ADME; conditions: liver S9 fractions, pH 7.4, probe EZE (ezetimibe), 3 μM; formation of EZE-Ph; rat liver S9, 3 μM EZE, bile acids up to 100 μM; read-out: inhibition of EZE-Ph generation
Description: To evaluate the effect of hepatic impairment on the hepatic metabolism of EZE, 0.3 μM, 3 μM, and 30 μM EZE were incubated with rat liver S9 fractions (2 mg of protein/mL) at 37 °C for 60 min in the Tris-HCl-buffered system (100 mM, pH 7.4), consisting of UDPGA (1 mM), MgCl2 (10 mM), and alamethicin (25 μg/mL). To investigate the effect of bile acids on the metabolism of EZE in the liver, 3 μM EZE was incubated with rat or human liver S9 fractions (2 mg of protein/mL) at 37 °C for 60 min in the Tris-HCl-buffered system with or without bile acids at 1, 10, and 100 μM. The total volume of the incubation system was 100 μL. The reactions were terminated by adding 100 μL of ice-cold acetonitrile. Samples were stored at −20 °C until analysis. EZE and EZE-Ph were detected by liquid chromatography with tandem mass spectrometry (LC-MS/MS).

OATP1B3 [1] = biological target: T1, OATP1B3; assay: Inhibition of OATP1B3-mediated uptake in OATP1B3-transfected HEK293 cells by bile acids and rifampicin
[2] = patients with moderate CLD; cited from earlier work
OATP1B3 [3] = biological target: T1, OATP1B3
[4] = substrate: O=C(O)C1OC(Oc2ccc([C@@H]3[C@@H](CC[C@H](O)c4ccc(F)cc4)C(=O)N3c3ccc(F)cc3)cc2)C(O)C(O)C1O; assay: Uptake of EZE-Ph into OAT3-transfected HEK293 cells; assay type: in vitro ADME, human; conditions: other: OAT3 HEK293, uptake time 5 min; 37.0 °C
Description: The kinetic parameters and the half inhibitory concentration (IC50) were calculated using GraphPad Prism. […] The intrinsic clearance (CLint) was calculated as CLint = Vmax/Km.

| Molecule | EZE-Ph uptake by rat hepatocytes in the presence of inhibitor (rat primary hepatocytes; inhibitor 1 μM) [%] | EZE-Ph uptake by rat hepatocytes in the presence of inhibitor (rat primary hepatocytes; inhibitor 100 μM) [%] | inhibition at 60 min (UGTs) [%] | IC50 (OATP1B3 [1]) [µM] | also measured |
| --- | --- | --- | --- | --- | --- |
| C[C@H](CCC(=O)NCC(=O)O)[C@H]1CC[C@H]2[C@@H]3[C@H](O)C[C@@H]4C[C@H](O)CC[C@]4(C)[C@H]3C[C@H](O)[C@]12C [GCA, glycocholic acid] | 109 | 16.3 | < 40 | 79.7 | EZE-Ph uptake by rat hepatocytes in the presence of inhibitor (rat primary hepatocytes; inhibitor 10 μM): 64.1% |
| C=CCN1CC[C@]23c4c5ccc(O)c4O[C@H]2C(=O)CC[C@@]3(O)[C@H]1C5 [Naloxone] |  |  |  |  | decrease of clearance [2]: over 50% |
| C[C@H](CCC(=O)NCCS(=O)(=O)O)[C@H]1CC[C@H]2[C@@H]3[C@H](O)C[C@@H]4C[C@H](O)CC[C@]4(C)[C@H]3C[C@H](O)[C@]12C [TCA, taurocholic acid] | 94.1 | 13.9 | < 40 | 93.1 |  |
| C[C@H](CCC(=O)NCCS(=O)(=O)O)[C@H]1CC[C@H]2[C@@H]3[C@H](O)C[C@@H]4C[C@H](O)CC[C@]4(C)[C@H]3CC[C@]12C [TCDCA, taurochenodeoxycholic acid] |  |  |  |  | IC50 (OATP1B3 [3]): 7.94 µM |
| B1 |  |  |  |  | Km [4]: 166 µM; Vmax [4]: 0.000306 µmol/min/mg; Vmax/Km [4]: 1.84 µL/min/mg |

Reference: paper PMC9785202, “Changes in Disposition of Ezetimibe and Its Active Metabolites Induced by Impaired Hepatic Function: The Influence of Enzyme and Transporter Activities” (Pharmaceutics, 2022)
